Measurements: PubChem BioAssay (NCI)
“And” between values parts separate entries of the source, which are not always exact repeats. Equal values may be shown once.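 Tested at 5 concentrations; 48 h exposure; 96-well plates; endpoints linearly interpolated, else capped at highest concentration. GI50 is the concentration that inhibits growth by half. TGI: total growth inhibition.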

Key:
Assay in all cases: NCI tumour cell line growth inhibition, 48 h
HL-60(TB) leukemia = system: HL-60(TB) leukemia
HOP-62 NSCLC = system: HOP-62 NSCLC
M14 melanoma = system: M14 melanoma
MALME-3M melanoma = system: MALME-3M melanoma
NCI-H460 lung = system: NCI-H460 lung
SF-539 CNS = system: SF-539 CNS
SN12C renal = system: SN12C renal
TK-10 renal = system: TK-10 renal
MDA-MB-231 breast = system: MDA-MB-231 breast
PC-3 prostate = system: PC-3 prostate

SMILES	TGI (HL-60(TB) leukemia)	TGI (HOP-62 NSCLC)	TGI (M14 melanoma)	TGI (MALME-3M melanoma)	TGI (NCI-H460 lung)	TGI (SF-539 CNS)	TGI (SN12C renal)	TGI (TK-10 renal)	GI50 (HL-60(TB) leukemia)	GI50 (HOP-62 NSCLC)	GI50 (MALME-3M melanoma)	GI50 (NCI-H460 lung)	GI50 (SF-539 CNS)	GI50 (SN12C renal)	TGI (MDA-MB-231 breast)	TGI (PC-3 prostate)
CCSC1=C(C)N(C=NC(C)(C)C)CC1	> 100 µM	> 100 µM	> 100 µM	> 100 µM	> 100 µM	> 100 µM	> 100 µM	> 100 µM								
CCOC(=O)C(=Cc1ccc(C(=O)OC)cc1)C(=O)OCC	4.36 µM	4.43 µM	3.36 µM	3.52 µM	55.2 µM	3.17 µM	5 µM	7.34 µM								
CC(=O)O[C@]12CCCC1C1(O)C(O)CCCC12 (some centres undefined)	> 100 µM	> 100 µM	> 100 µM	> 100 µM	> 100 µM		> 100 µM	> 100 µM								
O=[Se](=O)c1ccccc1.O=[Se](=O)c1ccccc1.[Cu]	15.4 µM	43.4 µM		31.7 µM	20 µM	30.6 µM	29.5 µM		6.51 µM	26 µM	16.8 µM	8 µM	16.4 µM	15.8 µM		
OC1(c2cc3ccccc3s2)CCCCC1	> 100 µM	> 100 µM	> 100 µM		> 100 µM	> 100 µM	> 100 µM	> 100 µM							87.5 µM	
Cc1ccc(N2CCc3c(C)c(C#N)c4nc5ccccc5n4c32)cc1	> 100 µM	> 100 µM		> 100 µM	> 100 µM	> 100 µM	> 100 µM	> 100 µM								> 100 µM
C/C(=N\NC(N)=S)C(CN(CC(C)C)CC(C)C)C(=O)Nc1ccc(C)cc1C (centres undefined)	> 100 µM	> 100 µM	> 100 µM	> 100 µM	> 100 µM	> 100 µM	> 100 µM	> 100 µM								
c1ccc2c(c1)nc(NC1CCCC1)c1[nH]c(C3CCCC3)nc12	6.82 µM	35.9 µM	10 µM	30.7 µM	27.1 µM	21.1 µM	> 83.9 µM	> 93.3 µM								
Cc1cccc(C2=NC(C)(C)C(C)(C)N=C2c2cccc(C)n2)n1	> 100 µM	> 100 µM	> 100 µM	> 100 µM	> 100 µM	> 100 µM		> 100 µM								
O=C1Nc2cc([N+](=O)[O-])ccc2NC1/C(=N\Nc1ccccc1)C(O)c1cccc([N+](=O)[O-])c1 (centres undefined)	> 100 µM	> 100 µM	> 100 µM	> 100 µM	> 100 µM	> 100 µM	> 100 µM	> 100 µM								
c1ccc2c(c1)CCc1cc3cc4c(nc3nc1-2)-c1ccccc1CC4	> 100 µM	> 100 µM	> 100 µM	> 100 µM	> 100 µM	> 100 µM	> 100 µM	> 100 µM								
NC(=O)C#CC(N)=O	4.29 µM and 4.03 µM and 6.3 µM	211 µM and 170 µM and > 100 µM	37.5 µM	19.7 µM and 18.1 µM	146 µM and 126 µM and > 100 µM	46.3 µM and 68.9 µM	26.6 µM and > 100 µM	36.2 µM	1.95 µM	57.4 µM	5.74 µM	38.3 µM and 32.8 µM and > 100 µM		14.3 µM and 36.4 µM		
N#Cc1c(N2CCCC2)ncn(Cc2ccccc2)c1=O	> 100 µM	> 100 µM	> 100 µM	> 100 µM	> 100 µM	> 100 µM	> 100 µM	> 100 µM								> 100 µM
Cc1cc(S(=O)(=O)O)c(NC(=O)C(=O)C2C=CCS2(=O)=O)cc1Cl (centres undefined)	> 100 µM	> 100 µM	> 100 µM	> 100 µM	> 100 µM	> 100 µM	> 100 µM	> 100 µM								
O=C1NC2(CCCCC2)C2CCCCCC12 (centres undefined)	> 100 µM	> 100 µM	> 100 µM	> 100 µM	> 100 µM	> 100 µM	> 100 µM	> 100 µM								
C=C1C(=O)OCC2C(C(=O)O)=CC3C(C)C(C)=CC123 (centres undefined)	26 µM	31.4 µM		17.6 µM	29.2 µM	23.9 µM	23.6 µM									
Cc1cccc(NC(=O)C(=O)C(C(=O)c2ccccc2F)C2OC(=O)c3ccccc32)c1Cl (centres undefined)	56.2 µM	> 100 µM	> 100 µM		> 100 µM	40.4 µM	> 100 µM	> 100 µM								
COc1ccc(-c2c(N)n(-c3cccc(C(=O)O)c3)c(=O)c3cc([N+](=O)[O-])ccc23)cc1	> 100 µM	> 100 µM	> 100 µM		> 100 µM	> 100 µM		> 100 µM								> 100 µM
[N-]=[N+]=NCc1cccc(Nc2cc(=O)[nH]c(=O)[nH]2)c1	> 100 µM	> 100 µM	> 100 µM	> 100 µM		> 100 µM	> 100 µM	> 100 µM								
COc1cccc(/C=N/[N-]C(N)=O)c1[O-].[Ni+2].[OH3+].c1cnc2c(c1)ccc1cccnc12	> 100 µM	> 100 µM	> 100 µM	> 100 µM	> 100 µM	> 100 µM	> 100 µM	> 100 µM	69.5 µM							
